{"source": "patent US20220409692A1", "about": "“Systems Chemico-Pharmacology Drugs and Methods of Use” (The Medical College of Wisconsin, priority 2019, published 2022)", "key": {"[1]": {"system": "hyperoxic neonatal rat pups", "assay": "Hyperoxia-induced BPD in neonatal rat pups: lung histology, cell counts and morphometrics", "type": "in vivo, Sprague-Dawley rat", "source_text": "Since the number of neonatal rat pups per pregnant dam limits the number of experimental conditions that can be compared, we modified our standard experimental design protocol. The first experiment was designed to determine if hyperoxia increased BPD, while the second was designed to determine if inhibiting MPO oxidant production reduced BPD. At least three sets of neonatal pups from three different dams were used for each experiment. Pups were fed ad libitum from nursing dams. Pups were weighed and inspected daily in room air for less than ten minutes. Nursing dams were switched daily to avoid the impact of nutritional status. Experience has taught us that severity of hyperoxia-induced BPD is litter dependent. To minimize litter differences, we determined the effects of hyperoxia vs. normoxia on BPD in neonatal pups by mixing pups from the litters and randomly reallocating pups with nursing dams.\nImmunohistochemistry and Immunocytochemistry: After cannulating the trachea with an Instech Solomon (20G) stainless steel feeding tube (Plymouth Meeting, Pa.), the lungs were inflated with 10% neutral buffered formalin at 25 cm-H2O (2.4 kPa) for 1 h. Lungs were removed after the trachea were securely tied with surgical silk to maintain the pressure, and perfusion fixed with an additional aliquot of 10% neutral buffered formalin for 24 h before paraffin embedding. Lung sections (5 μm) were mounted on SuperFrost plus-coated slides (Denville Scientific, Metuchen, N.J.). Slides were deparaffinized and sections stained with hematoxylin and eosin (H&E). Histology images were captured with a mounted digital camera using an Olympus IX 51 microscope and a 10× objective. Inflammatory cells, myeloid cells including neutrophils, monocytes, and macrophages, were stained with MPO antibody (1:200) overnight at 4° C. and HPR-conjugated anti-rabbit antibody (1:1000) at room temperature for one hour then visualized by diaminobenzidine to generate a dark-brown color. Blood vessels were stained with RECA-1 and visualized with horseradish-conjugated secondary antibody and diaminobenzidine. The average of three sections per pup, and five counts per section (15 counts/pup) was used for statistical analysis. Quantified data were obtained and entered into the record using predetermined codes by one of the coauthors who was not involved in taking the images.\nMorphometric Analysis: The mean linear intercept (MLI), or chord length, was used as a method to estimate the volume-to-surface ratio of acinar airspaces whereas radial alveolar count (RAC) and secondary septa were investigated to study the complexity of lung structure (21). Ten equally spaced horizontal lines were drawn on each picture, and the number of intercepts through the alveolar wall was counted. MLI was obtained by the number of times the traverses are placed on the lung times the length of the traverse then divided by the sum of all the intercepts. For the RAC, a line from the center of the respiratory tract perpendicular to the nearest connective tissue septum was drawn, and alveoli intercepting with the line were counted. For measurement of secondary septa, elastin was stained with resorcin fuchsin and Van Gieson's solution.\nSince the number of neonatal rat pups per pregnant dam limits the number of experimental conditions that can be compared, we modified our standard experimental protocol. The first study was designed to determine if hyperoxia increased BPD and caused a change in proteins of interest. Data from these studies can be found in on-line supplemental data. The second study was designed to determine if inhibiting MPO toxic oxidant production reduced BPD. At least three sets of neonatal pups from three different dams were used for each study. Pups were fed ad libitum from nursing dams. Pups were inspected daily starting on P1 and weighed starting on P3 in room air for less than ten minutes. Nursing dams were switched daily to avoid the impact of oxygen toxicity. […]"}, "[2]": {"molecular_target": "T1, MPO (Homo sapiens, UniProt P05164)", "T1 sequence (P05164 49-745)": "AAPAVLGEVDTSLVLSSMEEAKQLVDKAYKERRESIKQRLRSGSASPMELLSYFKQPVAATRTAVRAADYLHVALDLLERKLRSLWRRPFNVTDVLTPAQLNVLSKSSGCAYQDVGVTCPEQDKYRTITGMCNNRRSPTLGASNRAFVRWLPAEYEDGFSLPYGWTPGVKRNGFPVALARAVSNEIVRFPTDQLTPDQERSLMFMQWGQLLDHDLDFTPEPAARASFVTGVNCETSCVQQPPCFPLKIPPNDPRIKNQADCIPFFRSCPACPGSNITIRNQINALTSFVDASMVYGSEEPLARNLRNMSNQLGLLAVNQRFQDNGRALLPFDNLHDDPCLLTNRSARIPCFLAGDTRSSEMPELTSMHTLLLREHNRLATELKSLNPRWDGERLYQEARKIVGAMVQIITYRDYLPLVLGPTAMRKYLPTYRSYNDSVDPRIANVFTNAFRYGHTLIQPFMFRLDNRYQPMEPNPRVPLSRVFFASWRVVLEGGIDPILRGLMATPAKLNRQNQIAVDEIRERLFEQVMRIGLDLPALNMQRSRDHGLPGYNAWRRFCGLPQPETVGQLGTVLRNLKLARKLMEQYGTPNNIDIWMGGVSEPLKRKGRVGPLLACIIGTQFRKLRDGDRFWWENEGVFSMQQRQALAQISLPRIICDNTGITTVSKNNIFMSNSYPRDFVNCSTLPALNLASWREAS", "assay": "MPO oxidation of KYC to thiyl radical, ESR with DMPO", "type": "biochemical", "settings": "MPO 120 nM, H2O2 50 μM, KYC 30 μM", "description": "FIG. 30. MPO Oxidizes KYC to a KYC Thiyl Radical That Thiylates HMGB1. (A) ESR spectrum of KYC thiyl S°-DMPO generated by an MPO reaction mixture containing MPO (120 nM), H2O2 (50 μM) and KYC (30 μM). (B) Streptavidin-affinity blot of KYC thiylated HMGB1 and MPO in a split sample, one half treated neat and other half treated with DTT (100 mM) to reduce disulfide bonds.\nThis spectrum is similar to the spectrum of DMPO-S◯-YC generated when the dipeptide YC was added to an MPO reaction mixture containing DMPO [34]."}, "[3]": {"settings": "hyperoxic pups, KYC vs PBS, P10"}}, "note": "Peptide text beside a SMILES is read from it."}
{"compound": "CC(=O)N[C@@H](CCCCN)C(=O)N[C@@H](Cc1ccc(O)cc1)C(=O)N[C@@H](CS)C(N)=O", "note": "[KYC, N-acetyl lysyltyrosylcysteine amide] (Ac-Lys-Tyr-Cys-NH2)", "values": [{"measurement": "RAC (radial alveolar count)", "setting": "[1]; KYC-treated HOX group, P10, PBS-treated HOX 4.2±0.6", "result": "6.3±0.4"}, {"measurement": "secondary septation", "setting": "[1]; KYC-treated HOX group, P10, PBS-treated HOX 5.0±1.3", "result": "7.8±1.2 /HPF"}, {"measurement": "capillary count", "setting": "[1]; KYC-treated HOX group, P10, PBS-treated HOX 5.2±1.0", "result": "9.7±3.0 /HPF"}, {"measurement": "MLI (mean linear intercept)", "setting": "[1]; KYC-treated HOX group, P10, PBS-treated HOX 95.9±9.1", "result": "74.1±4.7", "unit": "μm"}, {"measurement": "MPO-positive myeloid cell count", "setting": "[1]; hyperoxia (O2>90%) pups, KYC 5 mg/kg twice per day i.p. P2-P10, lungs at P10, PBS 2.0±0.7", "result": "0.8±0.7 /HPF"}, {"measurement": "reduction of myeloid cell recruitment (MPO+ myeloid cells)", "setting": "[1]; hyperoxic lungs, KYC vs PBS, P10", "result": "approximately 50%"}, {"measurement": "decrease of MLI", "setting": "[1]; [3]", "result": "approximately 22%"}, {"measurement": "increase of RAC", "setting": "[1]; [3]", "result": "approximately 35%"}, {"measurement": "increase of blood vessel counts", "setting": "[1]; [3]", "result": "~92", "unit": "%"}, {"measurement": "increase of secondary septa", "setting": "[1]; [3]", "result": "~55", "unit": "%"}, {"measurement": "8-OH-dG immunofluorescence staining (oxidative DNA damage)", "setting": "[1]; hyperoxic rat pups, KYC vs PBS", "result": "reduced 8-OH-dG in the nuclei of lung cells"}, {"measurement": "ESR spectrum of MPO reaction mixture with DMPO", "setting": "[2]", "result": "four-line ESR spectrum corresponding to DMPO-SO-KYC"}]}
